Results on 24 compounds are retold here after US20240066027A1 (DOMAIN THERAPEUTICS, priority 2020, published 2024).

Structures can show the parent of a compound that is named as a salt.

For the test, the target named is T1, human PAR-2 (hPAR-2) receptor expressed in HEK-293 T cells in an endogenous manner (Homo sapiens, UniProt P55085).
T1 construct: human PAR-2 (hPAR-2) receptor expressed in HEK-293 T cells in an endogenous manner; endogenous in cells; host or cells: HEK-293 T cells
T1 sequence (P55085 26-397): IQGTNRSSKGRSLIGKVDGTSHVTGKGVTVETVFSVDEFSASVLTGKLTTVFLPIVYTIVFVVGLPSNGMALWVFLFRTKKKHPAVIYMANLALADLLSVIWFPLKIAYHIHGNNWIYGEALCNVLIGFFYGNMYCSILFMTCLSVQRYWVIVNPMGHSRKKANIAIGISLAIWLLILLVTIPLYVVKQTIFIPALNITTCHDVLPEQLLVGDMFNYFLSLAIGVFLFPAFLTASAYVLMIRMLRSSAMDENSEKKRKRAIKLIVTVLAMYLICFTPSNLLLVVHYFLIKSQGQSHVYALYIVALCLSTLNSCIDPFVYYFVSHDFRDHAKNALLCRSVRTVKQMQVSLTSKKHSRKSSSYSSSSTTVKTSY
Nature of the test: In vitro human PAR-2 functional antagonist activity using calcium assays (Fluo4AM, FLIPR Tetra). The following applies: HEK-293 T cells stimulated by an EC80 of the 2-Furoyl-LIGRLO-NH2 peptide after 10 min incubation with compound; 20 concentrations, duplicate, two independent experiments. Format: cell-based. The method, boiled down: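 Antagonist activity was taken as the decrease in the calcium response to an EC80 of 2-Furoyl-LIGRLO-NH2, measured over 5 min. The agonist was added after a 10 min compound-alone step on the same plate. The HEK-293 T cells express PAR-2 endogenously and were loaded with 1 μM Fluo4AM. Signals were referenced to buffer and EC80-alone controls.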

What is called IC50 is the concentration at which inhibition is half-maximal. Take `Cc1cc(N2CCN(C(=O)c3ccc4c(-c5ccc(Cl)c(F)c5)cn(C(C)(C)C)c4n3)C(C)(C)C2)nc(C)c1C(=O)O` [Example 26, 6-(4-(1-(tert-butyl)-3-(4-chloro-3-fluorophenyl)-1H-pyrrolo[2,3-b]pyridine-6-carbonyl)-3,3-dimethylpiperazin-1-yl)-2,4-dimethylnicotinic acid]: the IC50 is less than 20 nM.

For the compound `Cc1cc(N2CCN(C(=O)c3ncc4c(-c5ccc(Cl)c(F)c5)cn(CC(C)C)c4n3)C(C)(C)C2)nc(C)c1C(=O)O` [Example 175, 6-(4-(5-(4-chloro-3-fluorophenyl)-7-isobutyl-7H-pyrrolo[2,3-d]pyrimidine-2-carbonyl)-3,3-dimethylpiperazin-1-yl)-2,4-dimethylnicotinic acid], the IC50 fell in the range of 20 to 10000 nM.

Regarding `Cc1cc(N2CCN(C(=O)c3ccc4c(-c5ccc(Cl)c(F)c5)cn(CC5(C)COC5)c4n3)C(C)(C)C2)nc(C)c1C(=O)O` [Example 181, 6-(4-(3-(4-chloro-3-fluorophenyl)-1-((3-methyloxetan-3-yl)methyl)-1H-pyrrolo[2,3-b]pyridine-6-carbonyl)-3,3-dimethylpiperazin-1-yl)-2,4-dimethylnicotinic acid], the IC50 is less than 20 nM.

For the compound `Cc1cc(N2CCN(C(=O)c3ccc4c(-c5ccc(Cl)c(F)c5)cn(C)c4n3)C(C)(C)C2)nc(C)c1C(=O)O` [Example 122, 6-(4-(3-(4-chloro-3-fluorophenyl)-1-methyl-1H-pyrrolo[2,3-b]pyridine-6-carbonyl)-3,3-dimethylpiperazin-1-yl)-2,4-dimethylnicotinic acid hydrochloride], the IC50 was 20 to 10000 nM.

With `Cc1cc(N2CCN(C(=O)c3ccc4c(-c5ccc(Cl)c(F)c5)cn(C[C@H]5CCOC5)c4n3)C(C)(C)C2)nc(C)c1C(=O)O` [Example 184, (R)-6-(4-(3-(4-chloro-3-fluorophenyl)-1-((tetrahydrofuran-3-yl)methyl)-1H-pyrrolo[2,3-b]pyridine-6-carbonyl)-3,3-dimethylpiperazin-1-yl)-2,4-dimethyinicotinic acid], the IC50 was less than 20 nM.

On to `CC(C)Cn1cc(-c2ccccc2Cl)c2ccc(C(=O)N3CCNC(=O)C3(C)C)nc21` [Example 53, 4-[3-(2-chlorophenyl)-1-isobutyl-pyrrolo[2,3-b]pyridine-6-carbonyl]-3,3-dimethyl-piperazin-2-one], for which the IC50 fell in the range of 20 to 10000 nM.

As for `CC1(C)C(=O)N(CC(=O)O)CCN1C(=O)c1ccc2c(-c3ccc(Cl)c(F)c3)cn(C(C)(C)C)c2n1` [Example 4, 2-(4-(1-(tert-butyl)-3-(4-chloro-3-fluorophenyl)-1H-pyrrolo[2,3-b]pyridine-6-carbonyl)-3,3-dimethyl-2-oxopiperazin-1-yl)acetic acid], the IC50 is 20 to 10000 nM.

`Cc1cc(N2CCN(C(=O)c3ccc4c(-c5ccc(Cl)c(F)c5)c(C(F)(F)F)n(CC(C)C)c4n3)C(C)(C)C2)nc(C)c1C(=O)O` [Example 205, 6-(4-(3-(4-chloro-3-fluorophenyl)-1-isobutyl-2-(trifluoromethyl)-1H-pyrrolo[2,3-b]pyridine-6-carbonyl)-3,3-dimethylpiperazin-1-yl)-2,4-dimethyinicotinic acid]: the IC50 was less than 20 nM.

As for `Cc1cc(C2CCN(C(=O)c3ccc4c(-c5ccc(Cl)c(F)c5)cn(C(C)(C)C)c4n3)CC2)nc(C)c1C(=O)O` [Example 168, 6-(1-(1-(tert-butyl)-3-(4-chloro-3-fluorophenyl)-1H-pyrrolo[2,3-b]pyridine-6-carbonyl)piperidin-4-yl)-2,4-dimethylnicotinic acid], the IC50 is 20 to 10000 nM.

In the case of `Cc1cc2c(-c3ccc(Cl)c(F)c3)cn(CC(C)C)c2nc1C(=O)N1CCN(c2cc(C)c(C(=O)O)c(C)n2)CC1` [Example 186, 6-(4-(3-(4-chloro-3-fluorophenyl)-1-isobutyl-5-methyl-1H-pyrrolo[2,3-b]pyridine-6-carbonyl)piperazin-1-yl)-2,4-dimethylnicotinic acid], the IC50 was more than 10000 nM.

On to `CC(C)N1CNC(=O)C12CCN(C(=O)c1ccc3c(-c4ccc(Cl)c(F)c4)cn(C(C)(C)C)c3n1)CC2` [Example 207, 8-(1-(tert-butyl)-3-(4-chloro-3-fluorophenyl)-1H-pyrrolo[2,3-b]pyridine-6-carbonyl)-1-isopropyl-1,3,8-triazaspiro[4.5]decan-4-one], for which the IC50 is less than 20 nM.

In the case of `Cc1cc(N2CCN(C(=O)c3ccc4c(-c5ccc(F)c(F)c5)cn(CC(C)C)c4n3)C(C)(C)C2)nc(C)c1C(=O)O` [Example 141, 6-(4-(3-(3,4-difluorophenyl)-1-isobutyl-1H-pyrrolo[2,3-b]pyridine-6-carbonyl)-3,3-dimethylpiperazin-1-yl)-2,4-dimethylnicotinic acid], the IC50 is less than 20 nM.

As for `CC(C)Cn1cc(-c2ccc(Cl)cc2)c2ccc(C(=O)N3CCNC(=O)C3(C)C)nc21` [Example 54, 4-[3-(4-chlorophenyl)-1-isobutyl-pyrrolo[2,3-b]pyridine-6-carbonyl]-3,3-dimethyl-piperazin-2-one], the IC50 lay within 20 to 10000 nM.

Take `Cc1cccnc1Cn1cc(-c2ccc(Cl)c(F)c2)c2ccc(C(=O)N3CCN(c4cc(C)c(C(=O)O)c(C)n4)CC3(C)C)nc21` [Example 193, 6-(4-(3-(4-chloro-3-fluorophenyl)-1-((3-methylpyridin-2-yl)methyl)-1H-pyrrolo[2,3-b]pyridine-6-carbonyl)-3,3-dimethylpiperazin-1-yl)-2,4-dimethylnicotinic acid hydrochloride]: the 50% inhibitory concentration (IC50) was less than 20 nM.

As for `CC(C)(C#N)c1ccnc(N2CCN(C(=O)c3ccc4c(-c5ccc(Cl)c(F)c5)cn(C(C)(C)C)c4n3)C(C)(C)C2)c1` [Example 176, 2-(2-(4-(1-(tert-butyl)-3-(4-chloro-3-fluorophenyl)-1H-pyrrolo[2,3-b]pyridine-6-carbonyl)-3,3-dimethylpiperazin-1-yl)pyridin-4-yl)-2-methylpropanenitrile], the IC50 is less than 20 nM.

`CC(C)(C)n1cc(-c2ccc(Cl)c(F)c2)c2ccc(C(=O)N3CCC4(CC3)NC(=O)NC4=O)nc21` [Example 24, 8-(1-(tert-butyl)-3-(4-chloro-3-fluorophenyl)-1H-pyrrolo[2,3-b]pyridine-6-carbonyl)-1,3,8-triazaspiro[4.5]decane-2,4-dione]: the IC50 lay within 20 to 10000 nM.

Consider `CC(C)(C)n1cc(-c2ccc(Cl)c(F)c2)c2ccc(C(=O)N3C[C@@H]4[C@@H](CC(=O)O)[C@@H]4C3)nc21` [Example 124, 2-((1R,5S,6s)-3-(1-(tert-butyl)-3-(4-chloro-3-fluorophenyl)-1H-pyrrolo[2,3-b]pyridine-6-carbonyl)-3-azabicyclo[3.1.0]hexan-6-yl)acetic acid], for which the IC50 was less than 20 nM.

On to `CC(C)Cc1nn(-c2ccc(Cl)c(F)c2)c2ccc(C(=O)N3CCNC(=O)C3(C)C)nc12` [Example 62, 4-(1-(4-chloro-3-fluorophenyl)-3-isobutyl-1H-pyrazolo[4,3-b]pyridine-5-carbonyl)-3,3-dimethylpiperazin-2-one], for which the IC50 fell in the range of 20 to 10000 nM.

`COc1cccc(Cn2cc(-c3ccc(Cl)c(F)c3)c3ccc(C(=O)N4CCN(c5cc(C)c(C(=O)O)c(C)n5)CC4(C)C)nc32)n1` [Example 161, 6-(4-(3-(4-chloro-3-fluorophenyl)-1-((6-methoxypyridin-2-yl)methyl)-1H-pyrrolo[2,3-b]pyridine-6-carbonyl)-3,3-dimethylpiperazin-1-yl)-2,4-dimethylnicotinic acid]: the IC50 was less than 20 nM.

`CCn1cc(-c2ccc(Cl)c(F)c2)c2ccc(C(=O)N3CCN(c4cc(C)c(C(=O)O)c(C)n4)CC3(C)C)nc21` [Example 129, 6-(4-(3-(4-chloro-3-fluorophenyl)-1-ethyl-1H-pyrrolo[2,3-b]pyridine-6-carbonyl)-3,3-dimethylpiperazin-1-yl)-2,4-dimethylnicotinic acid]: the IC50 is less than 20 nM.

`Cc1cc(N2CCN(C(=O)c3ccc4c(-c5ccc(Cl)c(F)c5)c(C)n(C)c4n3)C(C)(C)C2)nc(C)c1C(=O)O` [Example 119, 6-(4-(3-(4-chloro-3-fluorophenyl)-1,2-dimethyl-1H-pyrrolo[2,3-b]pyridine-6-carbonyl)-3,3-dimethylpiperazin-1-yl)-2,4-dimethylnicotinic acid]: the IC50 was 20 to 10000 nM.

For the compound `COC[C@H](C)n1cc(-c2ccc(Cl)c(F)c2)c2ccc(C(=O)N3CCN(c4cc(C)c(C(=O)O)c(C)n4)CC3(C)C)nc21` [Example 136, (S)-6-(4-(3-(4-chloro-3-fluorophenyl)-1-(1-methoxypropan-2-yl)-1H-pyrrolo[2,3-b]pyridine-6-carbonyl)-3,3-dimethylpiperazin-1-yl)-2,4-dimethylnicotinic acid], the IC50 is less than 20 nM.

As to `Cc1cc(N[C@@H]2CCN(C(=O)c3ccc4c(-c5ccc(Cl)c(F)c5)cn(C(C)(C)C)c4n3)C2)nc(C)c1C(=O)O` [Example 153, (R)-6-((1-(1-(tert-butyl)-3-(4-chloro-3-fluorophenyl)-1H-pyrrolo[2,3-b]pyridine-6-carbonyl)pyrrolidin-3-yl)amino)-2,4-dimethylnicotinic acid], the IC50 was more than 10000 nM.

In the case of `CC1(C)CN(C(=O)CCCCCCC(=O)O)CCN1C(=O)c1ccc2c(-c3ccc(Cl)c(F)c3)cn(C(C)(C)C)c2n1` [Example 215, 8-(4-(1-(tert-butyl)-3-(4-chloro-3-fluorophenyl)-1H-pyrrolo[2,3-b]pyridine-6-carbonyl)-3,3-dimethylpiperazin-1-yl)-8-oxooctanoic acid], the IC50 was less than 20 nM.
